# System: MV-4-11 cells
# Assay: Gene expression microarray analysis (Affymetrix PrimeView) and GSEA
# Format: cell-based, human
# Parameters: RFU PODN (11730768_x_at) / Fold change /veh PODN (11730768_x_at) / RFU LINC00158 (11744669_a_at) / Fold change /veh LINC00158 (11744669_a_at) / RFU DUSP10 (11751237_a_at) / Fold change /veh DUSP10 (11751237_a_at) / RFU ID3 (11757404_x_at) / Fold change /veh ID3 (11757404_x_at) / RFU PLEKHG5 (11737974_s_at) / Fold change /veh PLEKHG5 (11737974_s_at) / RFU LRRC4B (11730491_at) / Fold change /veh LRRC4B (11730491_at) / RFU GIMAP4 (11747438_a_at) / Fold change /veh GIMAP4 (11747438_a_at) / RFU KRT8 (11758183_x_at) / Fold change /veh KRT8 (11758183_x_at) / RFU CNN1 (11734310_a_at) / Fold change /veh CNN1 (11734310_a_at) / RFU VPS37D (11726825_at) / Fold change /veh VPS37D (11726825_at) / RFU C10orf10 (11716522_x_at) / Fold change /veh C10orf10 (11716522_x_at) / RFU KIR2DL2 /// KIR2DL4 /// KIR2DL5A /// KIR2DL5B /// KIR2DS1 /// KIR2DS2 /// KIR2DS3 /// KIR2DS4 /// KIR3DL3 /// KIR3DL3 /// KIR3DS1 (11738374_at) / Fold change /veh KIR2DL2 /// KIR2DL4 /// KIR2DL5A /// KIR2DL5B /// KIR2DS1 /// KIR2DS2 /// KIR2DS3 /// KIR2DS4 /// KIR3DL3 /// KIR3DL3 /// KIR3DS1 (11738374_at) / RFU C1QL1 (11718748_at) / Fold change /veh C1QL1 (11718748_at) / RFU TMPRSS4 (11747572_a_at) / Fold change /veh TMPRSS4 (11747572_a_at) / RFU HAMP (11756126_x_at) / Fold change /veh HAMP (11756126_x_at) / RFU RNFT2 (11725882_a_at) / Fold change /veh RNFT2 (11725882_a_at) / RFU NR4A2 (11747474_a_at) / Fold change /veh NR4A2 (11747474_a_at) / RFU ABCC12 (11746883_a_at) / Fold change /veh ABCC12 (11746883_a_at) / RFU TMEM136 (11760407_x_at) / Fold change /veh TMEM136 (11760407_x_at) / RFU CLDN22 /// WWC2 (11732394_at) / Fold change /veh CLDN22 /// WWC2 (11732394_at) / RFU HLA-DPB1 (11760878_x_at) / Fold change /veh HLA-DPB1 (11760878_x_at) / RFU SPINT1 (11716480_a_at) / Fold change /veh SPINT1 (11716480_a_at) / RFU GAP43 (11754022_s_at) / Fold change /veh GAP43 (11754022_s_at) / RFU A4GNT (11735810_at) / Fold change /veh A4GNT (11735810_at) / RFU PRB3 (11715151_x_at) / Fold change /veh PRB3 (11715151_x_at) / RFU TUBB4B (11761932_at) / Fold change /veh TUBB4B (11761932_at) / RFU CAPN14 (11732068_a_at) / Fold change /veh CAPN14 (11732068_a_at) / RFU TMCC2 (11721928_a_at) / Fold change /veh TMCC2 (11721928_a_at) / RFU IRGQ (11745062_a_at) / Fold change /veh IRGQ (11745062_a_at) / RFU FAM174B (11720279_a_at) / Fold change /veh FAM174B (11720279_a_at) / RFU TMPRSS4 (11748680_a_at) / Fold change /veh TMPRSS4 (11748680_a_at) / RFU FAM212B (11763350_a_at) / Fold change /veh FAM212B (11763350_a_at) / RFU PLEKHG5 (11743358_a_at) / Fold change /veh PLEKHG5 (11743358_a_at) / RFU ZSCAN30 (11745921_a_at) / Fold change /veh ZSCAN30 (11745921_a_at) / RFU CMKLR1 (11741424_a_at) / Fold change /veh CMKLR1 (11741424_a_at) / RFU LOC101060620 /// MAPK8IP1 (11723275_at) / Fold change /veh LOC101060620 /// MAPK8IP1 (11723275_at) / RFU SPTSSB (11747773_x_at) / Fold change /veh SPTSSB (11747773_x_at) / RFU PRSS12 (11739890_at) / Fold change /veh PRSS12 (11739890_at) / RFU BIN1 (11741810_x_at) / Fold change /veh BIN1 (11741810_x_at) / RFU WNT11 (11732464_a_at) / Fold change /veh WNT11 (11732464_a_at) / RFU C10orf10 (11716521_a_at) / Fold change /veh C10orf10 (11716521_a_at) / RFU C5orf56 (11738089_at) / Fold change /veh C5orf56 (11738089_at) / RFU CYB561 (11721691_x_at) / Fold change /veh CYB561 (11721691_x_at) / RFU ANKRD19P (11752326_a_at) / Fold change /veh ANKRD19P (11752326_a_at) / RFU OR2T12 /// OR2T33 /// OR2T8 (11738714_s_at) / Fold change /veh OR2T12 /// OR2T33 /// OR2T8 (11738714_s_at) / RFU VCAN (11748164_a_at) / Fold change /veh VCAN (11748164_a_at) / RFU JSRP1 (11732532_at) / Fold change /veh JSRP1 (11732532_at) / RFU KRTAP10-11 (11738290_x_at) / Fold change /veh KRTAP10-11 (11738290_x_at) / RFU MYO3A (11730013_a_at) / Fold change /veh MYO3A (11730013_a_at) / RFU EBF3 (11725865_a_at) / Fold change /veh EBF3 (11725865_a_at) / RFU CAMK2N1 (11719241_x_at) / Fold change /veh CAMK2N1 (11719241_x_at) / RFU C5orf56 (11738088_a_at) / Fold change /veh C5orf56 (11738088_a_at) / RFU OLFML3 (11715873_a_at) / Fold change /veh OLFML3 (11715873_a_at) / RFU LOC100653217 /// NTM (11731650_a_at) / Fold change /veh LOC100653217 /// NTM (11731650_a_at) / RFU MAPK11 (11762145_a_at) / Fold change /veh MAPK11 (11762145_a_at) / RFU FIZ1 (11724087_x_at) / Fold change /veh FIZ1 (11724087_x_at) / RFU OASL (11726364_x_at) / Fold change /veh OASL (11726364_x_at) / RFU SOX15 (11748057_x_at) / Fold change /veh SOX15 (11748057_x_at) / RFU CD79A (11719716_a_at) / Fold change /veh CD79A (11719716_a_at) / RFU HIST1H1D (11736915_at) / Fold change /veh HIST1H1D (11736915_at) / RFU CASKIN2 (11723855_a_at) / Fold change /veh CASKIN2 (11723855_a_at) / RFU LOC730098 (11760151_x_at) / Fold change /veh LOC730098 (11760151_x_at) / RFU OR4N2 (11742367_at) / Fold change /veh OR4N2 (11742367_at) / RFU PRRT2 (11749266_a_at) / Fold change /veh PRRT2 (11749266_a_at) / RFU SNX32 (11753110_a_at) / Fold change /veh SNX32 (11753110_a_at) / RFU CDHR5 (11726645_a_at) / Fold change /veh CDHR5 (11726645_a_at) / RFU RCAN1 (11760418_a_at) / Fold change /veh RCAN1 (11760418_a_at) / RFU FAM167A (11723789_a_at) / Fold change /veh FAM167A (11723789_a_at) / RFU FAM26E (11764081_at) / Fold change /veh FAM26E (11764081_at) / RFU ISYNA1 (11749810_s_at) / Fold change /veh ISYNA1 (11749810_s_at) / RFU ACY1 (11761880_at) / Fold change /veh ACY1 (11761880_at) / RFU 11764098_at / Fold change /veh 11764098_at / RFU SAMD14 (11745864_x_at) / Fold change /veh SAMD14 (11745864_x_at) / RFU NPB (11741838_a_at) / Fold change /veh NPB (11741838_a_at) / RFU TMPRSS6 (11731388_a_at) / Fold change /veh TMPRSS6 (11731388_a_at) / RFU KRTAP10-2 (11738614_at) / Fold change /veh KRTAP10-2 (11738614_at) / RFU ARHGAP8 /// PRR5-ARHGAP8 (11727945_x_at) / Fold change /veh ARHGAP8 /// PRR5-ARHGAP8 (11727945_x_at) / RFU KRTAP5-7 /// NADSYN1 (11734609_at) / Fold change /veh KRTAP5-7 /// NADSYN1 (11734609_at) / RFU RASL12 (11751679_a_at) / Fold change /veh RASL12 (11751679_a_at) / RFU CDKN2B (11736163_a_at) / Fold change /veh CDKN2B (11736163_a_at) / RFU PRF1 (11729649_at) / Fold change /veh PRF1 (11729649_at) / RFU, ZNF638 /// ZNF638-IT1 / Fold change vs veh, ZNF638 /// ZNF638-IT1 / RFU, PANK3 / Fold change vs veh, PANK3 / RFU, SH3YL1 / Fold change vs veh, SH3YL1 / RFU, ZEB2 / Fold change vs veh, ZEB2 / RFU, NRIP1 / Fold change vs veh, NRIP1 / RFU, PTTG1IP / Fold change vs veh, PTTG1IP / RFU, CAPN2 / Fold change vs veh, CAPN2 / RFU, MED14 / Fold change vs veh, MED14 / RFU, SNORA58 / Fold change vs veh, SNORA58 / RFU, C1orf63 / Fold change vs veh, C1orf63 / RFU, LRRFIP1 / Fold change vs veh, LRRFIP1 / RFU, NDUFAF7 / Fold change vs veh, NDUFAF7 / RFU, SLC12A2 / Fold change vs veh, SLC12A2 / RFU, IBTK / Fold change vs veh, IBTK / RFU, ESF1 / Fold change vs veh, ESF1 / Fold change vs veh, TMEM50B / RFU, TAOK1 / Fold change vs veh, TAOK1 / RFU, ACBD3 / Fold change vs veh, ACBD3 / RFU, TMA16 / Fold change vs veh, TMA16 / RFU, RWDD3 / Fold change vs veh, RWDD3 / RFU, BCAT1 / Fold change vs veh, BCAT1 / RFU, EDEM3 / Fold change vs veh, EDEM3 / RFU, TMEM33 / Fold change vs veh, TMEM33 / RFU, WDR75 / Fold change vs veh, WDR75 / RFU, AHCTF1 / Fold change vs veh, AHCTF1 / RFU, TFRC / Fold change vs veh, TFRC / RFU, ZDHHC17 / Fold change vs veh, ZDHHC17 / RFU, NOM1 / Fold change vs veh, NOM1 / RFU, ARL8B / Fold change vs veh, ARL8B / RFU, ZBTB11 / Fold change vs veh, ZBTB11 / RFU, TAMM41 / Fold change vs veh, TAMM41 / RFU, KIAA1704 /// LOC100996395 / Fold change vs veh, KIAA1704 /// LOC100996395 / RFU, ING1 / Fold change vs veh, ING1 / RFU, TRMT61B / Fold change vs veh, TRMT61B / RFU, FUBP3 / Fold change vs veh, FUBP3 / RFU, TP53 / Fold change vs veh, TP53 / RFU, TNKS2 / Fold change vs veh, TNKS2 / RFU, ZFP14 / Fold change vs veh, ZFP14 / RFU, ACTR2 / Fold change vs veh, ACTR2 / RFU, PPP3R1 / Fold change vs veh, PPP3R1 / RFU, PIK3R1 / Fold change vs veh, PIK3R1 / RFU, HNRNPA1 / Fold change vs veh, HNRNPA1 / RFU, RNF170 / Fold change vs veh, RNF170 / RFU, ZNF28 / Fold change vs veh, ZNF28 / RFU, RNGTT / Fold change vs veh, RNGTT / RFU, OGT / Fold change vs veh, OGT / RFU, BRD1 / Fold change vs veh, BRD1 / RFU, MARS / Fold change vs veh, MARS / RFU, ZNF655 / Fold change vs veh, ZNF655 / RFU, FAHD1 / Fold change vs veh, FAHD1 / RFU, BDP1 / Fold change vs veh, BDP1 / RFU, LRRCC1 / Fold change vs veh, LRRCC1 / RFU, ARID1A / Fold change vs veh, ARID1A / RFU, ZNF146 / Fold change vs veh, ZNF146 / RFU, ZNF330 / Fold change vs veh, ZNF330 / RFU, GPN3 / Fold change vs veh, GPN3 / RFU, C9orf123 / Fold change vs veh, C9orf123 / RFU, N4BP2L2 / Fold change vs veh, N4BP2L2 / RFU, ARFIP1 / Fold change vs veh, ARFIP1 / RFU, FAM179B / Fold change vs veh, FAM179B / RFU, BCL10 / Fold change vs veh, BCL10 / RFU, UHRF1BP1L / Fold change vs veh, UHRF1BP1L / RFU, BET1 / Fold change vs veh, BET1 / RFU, CNOT2 / Fold change vs veh, CNOT2 / RFU, ZNF268 / Fold change vs veh, ZNF268 / Fold change vs veh, ZNF507 / RFU, DGCR2 / Fold change vs veh, DGCR2 / RFU, WDSUB1 / Fold change vs veh, WDSUB1 / Fold change vs veh, HSP90B1 /// MIR3652 / RFU, ADSS / Fold change vs veh, ADSS / RFU, GK / Fold change vs veh, GK / RFU, ZNF148 / Fold change vs veh, ZNF148 / RFU, TAF9 / Fold change vs veh, TAF9 / RFU, SLC1A5 / Fold change vs veh, SLC1A5 / RFU, SLMO2 / Fold change vs veh, SLMO2 / RFU, ABCC4 / Fold change vs veh, ABCC4 / RFU, LOC101060439 /// RAP1B / Fold change vs veh, LOC101060439 /// RAP1B / RFU, RFX7 / Fold change vs veh, RFX7 / RFU, GTPBP10 / Fold change vs veh, GTPBP10 / RFU, CNEP1R1 / Fold change vs veh, CNEP1R1 / RFU, BIVM-ERCC5 /// ERCC5 / Fold change vs veh, BIVM-ERCC5 /// ERCC5 / RFU, ILF3 / Fold change vs veh, ILF3 / RFU 11762660_at / Fold change /veh 11762660_at / RFU VCAN (11757783_s_at) / Fold change /veh VCAN (11757783_s_at) / RFU DDX43 (11728927_at) / Fold change /veh DDX43 (11728927_at) / RFU KRT8 (11758188_x_at) / Fold change /veh KRT8 (11758188_x_at) / RFU NKD1 (11759106_at) / Fold change /veh NKD1 (11759106_at) / RFU SRD5A1 (11742802_a_at) / Fold change /veh SRD5A1 (11742802_a_at) / RFU TPSAB1 /// TPSB2 (11721975_s_at) / Fold change /veh TPSAB1 /// TPSB2 (11721975_s_at) / RFU GSTM3 (11746129_a_at) / Fold change /veh GSTM3 (11746129_a_at) / RFU IL23R (11737362_x_at) / Fold change /veh IL23R (11737362_x_at) / RFU TMEM51 (11727254_a_at) / Fold change /veh TMEM51 (11727254_a_at) / RFU PIWIL2 (11732686_x_at) / Fold change /veh PIWIL2 (11732686_x_at) / RFU ORM1 (11744905_x_at) / Fold change /veh ORM1 (11744905_x_at) / RFU CCDC152 (11743942_at) / Fold change /veh CCDC152 (11743942_at) / RFU ECM1 (11717891_a_at) / Fold change /veh ECM1 (11717891_a_at) / RFU IL23R (11748794_a_at) / Fold change /veh IL23R (11748794_a_at) / RFU TNFAIP8L3 (11732012_x_at) / Fold change /veh TNFAIP8L3 (11732012_x_at) / RFU MBOAT4 (11741988_at) / Fold change /veh MBOAT4 (11741988_at) / RFU 11764193_at / Fold change /veh 11764193_at / RFU TMEM53 (11763286_at) / Fold change /veh TMEM53 (11763286_at) / RFU MAGEB2 (11727129_at) / Fold change /veh MAGEB2 (11727129_at) / RFU TMEM200A (11744735_a_at) / Fold change /veh TMEM200A (11744735_a_at) / RFU CCDC152 (11751479_a_at) / Fold change /veh CCDC152 (11751479_a_at) / RFU FAM211A (11726209_a_at) / Fold change /veh FAM211A (11726209_a_at) / RFU RGS16 (11746705_a_at) / Fold change /veh RGS16 (11746705_a_at) / RFU VCAN (11755009_s_at) / Fold change /veh VCAN (11755009_s_at) / RFU RHOB (11743442_s_at) / Fold change /veh RHOB (11743442_s_at) / RFU RGS16 (11720943_a_at) / Fold change /veh RGS16 (11720943_a_at) / RFU RGS16 (11720944_at) / Fold change /veh RGS16 (11720944_at) / RFU, VPS4B / Fold change vs veh, VPS4B / RFU, CREB1 / Fold change vs veh, CREB1 / RFU, DNAJC13 / Fold change vs veh, DNAJC13 / RFU, GNAQ / Fold change vs veh, GNAQ / RFU, CDK5R1 / Fold change vs veh, CDK5R1 / RFU, ZRANB3 / Fold change vs veh, ZRANB3 / RFU, CUL4A / Fold change vs veh, CUL4A / RFU, CCNY / Fold change vs veh, CCNY / RFU, UFL1 / Fold change vs veh, UFL1 / RFU, COG3 / Fold change vs veh, COG3 / RFU, DIAPH2 / Fold change vs veh, DIAPH2 / RFU, SKA2 / Fold change vs veh, SKA2 / RFU, AFF3 / Fold change vs veh, AFF3 / RFU, LMF1 / Fold change vs veh, LMF1 / RFU, IPO11 / Fold change vs veh, IPO11 / RFU, DFFB / Fold change vs veh, DFFB / RFU, FOXP1 / Fold change vs veh, FOXP1 / RFU, CARD8 / Fold change vs veh, CARD8 / RFU, STRN3 / Fold change vs veh, STRN3 / RFU, ADK / Fold change vs veh, ADK / RFU, RASSF2 / Fold change vs veh, RASSF2 / RFU, WIPF1 / Fold change vs veh, WIPF1 / RFU, LARP1B / Fold change vs veh, LARP1B / RFU, RASA1 / Fold change vs veh, RASA1 / RFU, RB1 / Fold change vs veh, RB1 / RFU, PPFIA1 / Fold change vs veh, PPFIA1 / RFU, MAT2A / Fold change vs veh, MAT2A / RFU, CCT5 / Fold change vs veh, CCT5 / RFU, WDR92 / Fold change vs veh, WDR92 / RFU, CUX1 / Fold change vs veh, CUX1 / RFU, TTC7A / Fold change vs veh, TTC7A / RFU, TMEM135 / Fold change vs veh, TMEM135 / RFU, DEPTOR / Fold change vs veh, DEPTOR / RFU, CPM / Fold change vs veh, CPM / RFU, DNAJB6 / Fold change vs veh, DNAJB6 / RFU, CACNA2D3 / Fold change vs veh, CACNA2D3 / RFU, DTX4 / Fold change vs veh, DTX4 / RFU, TFCP2 / Fold change vs veh, TFCP2 / RFU, GMCL1 /// GMCL1P1 / Fold change vs veh, GMCL1 /// GMCL1P1 / RFU, AEBP2 / Fold change vs veh, AEBP2 / RFU, SNHG1 /// SNORD22 /// SNORD25 /// SNORD26 /// SNORD27 /// SNORD28 /// SNORD29 /// SNORD31 / Fold change vs veh, SNHG1 /// SNORD22 /// SNORD25 /// SNORD26 /// SNORD27 /// SNORD28 /// SNORD29 /// SNORD31 / Fold change (Aza/veh), C12orf56 (ProbeSet 11735607_a_at) / Fold change (ACY-1035/veh), C12orf56 (ProbeSet 11735607_a_at) / Fold change (Aza/veh), FGFR1OP (ProbeSet 11751329_s_at) / Fold change (ACY-1035/veh), FGFR1OP (ProbeSet 11751329_s_at) / Fold change (Aza/veh), VPS36 (ProbeSet 11739960_a_at) / Fold change (ACY-1035/veh), VPS36 (ProbeSet 11739960_a_at) / RFU SYPL1 (11715823_x_at) / Fold change /veh SYPL1 (11715823_x_at) / RFU IGFBP7 (11715501_s_at) / Fold change /veh IGFBP7 (11715501_s_at) / RFU REEP3 (11722064_at) / Fold change /veh REEP3 (11722064_at) / RFU IGLL1 (11728026_x_at) / Fold change /veh IGLL1 (11728026_x_at): dose or concentration left out as unconfirmed
# Details: ProbeSet 11741199_a_at; LIST B
smiles,measurement,value
Nc1ncn([C@@H]2O[C@H](CO)[C@@H](O)[C@H]2O)c(=O)n1 [azacitidine],"RFU, LRRCC1",65.24 RFU

# — publication PMC5218480 (PLoS ONE, 2017)
